Measured values: patent US12371454B2, “Cyclic peptide compound having Kras inhibitory action” (priority 2019, dated 2025)
Starred links: 1 amine or outer side, 2 acyl side, 3 side chain; linkers in the order of their positions; H or OH if unused. Positions of bridges follow the written chain, without caps; N, C: chain ends. Non-standard residues stand in square brackets, D forms with d. Residues, ends and D or L forms follow the SMILES beside them. *: point of attachment. hPhe(3-Cl-4-CF3) = N[C@@H](CCc1ccc(C(F)(F)F)c(Cl)c1)C(=O)O; hPhe(3-F,4-CF3) = N[C@@H](CCc1ccc(C(F)(F)F)c(F)c1)C(=O)O; hPhe(4-CF3) = N[C@@H](CCc1ccc(C(F)(F)F)cc1)C(=O)O; NEtPhe(4-Me) = CCN[C@@H](Cc1ccc(C)cc1)C(=O)O; NMePhe(4-Cl) = CN[C@@H](Cc1ccc(Cl)cc1)C(=O)O; NMePhe(4-F) = CN[C@@H](Cc1ccc(F)cc1)C(=O)O; NMedβ3hAla = C[C@H](CC(=O)[*:2])N(C)[*:1]; Oic = O=C(O)[C@@H]1C[C@@H]2CCCC[C@@H]2N1; NMeGly(cPent) = CN[C@H](C(=O)O)C1CCCC1; NMeCha = CN[C@@H](CC1CCCCC1)C(=O)O; Hyp = O=C(O)[C@@H]1C[C@@H](O)CN1; NMeChg = CN[C@H](C(=O)O)C1CCCCC1; NMeF = CN[C@@H](Cc1ccccc1)C(=O)O; Gly(cPr) = N[C@H](C(=O)O)C1CC1; NMeD = CN[C@@H](CC(=O)O)C(=O)O; NMeL = CN[C@@H](CC(C)C)C(=O)O; NMeV = CN[C@H](C(=O)O)C(C)C; d(β3hA) = C[C@@H](N)CC(=O)O; NMeS = CN[C@@H](CO)C(=O)O; NMeA = CN[C@@H](C)C(=O)O; Piperidide = C1CCN(*)CC1; Pyrrolidide = C1CCN(*)C1; dNMeA = CN[C@H](C)C(=O)O; Ac5c = NC1(C(=O)O)CCCC1; Aze = O=C(O)[C@@H]1CCN1; Aib = CC(C)(N)C(=O)O; X47 = Fc1cncc(C*)c1; βAla = NCCC(=O)O; Sar = CNCC(=O)O

Each molecule was assayed against T1, Kras and SOS1 (biotin-tagged human Kras loaded with GDP, His-tagged human SOS1) (Homo sapiens, UniProt P01116, G12D) (assay: Protein-protein interaction inhibition between Kras and SOS1 (KrasGl2D-SOS PPI) using AlphaScreen). Conditions: AlphaScreen; biotin-tagged human Kras loaded with GDP, His-tagged human SOS1; read-out: KRAS G12D-SOS PPI IC50.
T1 construct: made in house; host or cells: E. coli (stated for Kras only)
Format: binding
In short: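 Kras was produced in E. coli, purified, then loaded with GDP. It was paired via streptavidin acceptor beads with His-SOS1 held on nickel donor beads, and proximity signal at 520-620 nm was read after 680 nm illumination.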

T1 sequence (P01116 1-188 isoform P01116-2 G12D): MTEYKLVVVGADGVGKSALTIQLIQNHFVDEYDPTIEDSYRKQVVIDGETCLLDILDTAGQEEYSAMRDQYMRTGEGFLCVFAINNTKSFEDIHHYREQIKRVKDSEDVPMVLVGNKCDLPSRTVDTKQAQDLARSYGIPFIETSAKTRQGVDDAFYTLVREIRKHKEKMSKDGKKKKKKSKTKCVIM

Row | Structure (SMILES) | IC50 [nM]
1 | CC[C@H](C)[C@@H]1NC(=O)[C@H](C)N(C)C(=O)C[C@@H](C)NC(=O)[C@H](C(C)C)N(C)C(=O)C2(CCCC2)NC(=O)[C@@H]2CCCN2C(=O)[C@H](CCc2ccc(C(F)(F)F)c(Cl)c2)NC(=O)[C@@H](C)N(C)C(=O)[C@H](CC2CCCCC2)N(C)C(=O)[C@@H]2CCCN2C(=O)CN(C)C1=O [Compound 516] (cyclo([Ac5c][NMeV][d(β3hA)][NMeA]I[Sar]P[NMeCha][dNMeA][hPhe(3-Cl-4-CF3)]P)) | 62
2 | CC[C@H](C)[C@@H]1NC(=O)[C@H](C)N(C)C(=O)C[C@@H](C(=O)N2CCCC2)NC(=O)[C@H](CC(C)C)N(C)C(=O)[C@H](COCc2cncc(F)c2)N(C)C(=O)[C@H](CC(C)C)NC(=O)[C@H](CCc2ccc(C(F)(F)F)cc2)NC(=O)CN(C)C(=O)[C@H](Cc2ccc(Cl)cc2)N(C)C(=O)CN(C)C(=O)CN(C)C1=O [Compound 517] ([NMeA]I[Sar][Sar][NMePhe(4-Cl)][Sar][hPhe(4-CF3)]L[NMeS](X47)[NMeL]D-Pyrrolidide; lactam N-11) | 28
3 | CC[C@H](C)[C@@H]1NC(=O)[C@H](C)N(C)C(=O)C[C@@H](C)NC(=O)[C@H](CC(C)C)N(C)C(=O)C(C)(C)NC(=O)[C@@H]2C[C@@H]3CCCC[C@@H]3N2C(=O)[C@H](CCc2ccc(C(F)(F)F)cc2)NC(=O)CN(C)C(=O)[C@H](Cc2ccc(Cl)cc2)N(C)C(=O)CN(C)C(=O)CN(C)C1=O [Compound 521] (cyclo([Aib][NMeL][d(β3hA)][NMeA]I[Sar][Sar][NMePhe(4-Cl)][Sar][hPhe(4-CF3)][Oic])) | 71
4 | CC[C@H](C)[C@@H]1NC(=O)[C@H](CC(C)C)N(C)C(=O)C[C@@H](C(=O)N2CCCCC2)N(C)C(=O)[C@H](C(C)C)N(C)C(=O)C(C)(C)NC(=O)[C@@H]2CCCN2C(=O)[C@H](CCc2ccc(C(F)(F)F)c(F)c2)NC(=O)CN(C)C(=O)[C@H](CC2CCCCC2)N(C)C(=O)CN(C)C(=O)CN(C)C1=O [Compound 522] ([NMeL]I[Sar][Sar][NMeCha][Sar][hPhe(3-F,4-CF3)]P[Aib][NMeV][NMeD]-Piperidide; lactam N-11) | 5.3
5 | CCO[C@@H]1C[C@H]2C(=O)NC3(CCCC3)C(=O)N(C)[C@@H](C3CCCC3)C(=O)N(C)[C@H](C)CC(=O)N(C)[C@@H](CC(C)C)C(=O)N[C@@H]([C@@H](C)CC)C(=O)N[C@@H](C)C(=O)N3CC[C@H]3C(=O)N(CC)[C@@H](Cc3ccc(C)cc3)C(=O)N(C)CC(=O)N[C@@H](CCc3ccc(C(F)(F)F)c(Cl)c3)C(=O)N2C1 [Compound 525] (cyclo(A[Aze][NEtPhe(4-Me)][Sar][hPhe(3-Cl-4-CF3)][Hyp](Et)[Ac5c][NMeGly(cPent)][NMedβ3hAla][NMeL]I)) | 2.3
6 | CC[C@H](C)[C@@H]1NC(=O)[C@H](CC(C)C)N(C)C(=O)C[C@@H](C(=O)N2CCCCC2)N(C)C(=O)[C@H](C2CCCCC2)N(C)C(=O)C2(CCCC2)NC(=O)[C@H](Cc2ccccc2)N(C)C(=O)[C@H](CCc2ccc(C(F)(F)F)c(Cl)c2)NC(=O)CN(C)C(=O)[C@H](CC2CCCCC2)N(C)C(=O)[C@@H]2CCN2C(=O)CN(C)C1=O [Compound 527] ([NMeL]I[Sar][Aze][NMeCha][Sar][hPhe(3-Cl-4-CF3)][NMeF][Ac5c][NMeChg][NMeD]-Piperidide; lactam N-11) | 38
7 | CC[C@H](C)[C@@H]1NC(=O)CCNC(=O)[C@H](Cc2ccc(F)cc2)N(C)C(=O)[C@H](C2CCCCC2)N(C)C(=O)C2(CCCC2)NC(=O)[C@@H]2CCCN2C(=O)[C@H](CCc2ccc(C(F)(F)F)c(Cl)c2)NC(=O)CN(C)C(=O)[C@H](CC2CCCCC2)N(C)C(=O)CN(C)C(=O)CN(C)C1=O [Compound 528] (cyclo([Ac5c][NMeChg][NMePhe(4-F)][βAla]I[Sar][Sar][NMeCha][Sar][hPhe(3-Cl-4-CF3)]P)) | 20
8 | CC(C)C[C@H]1C(=O)N[C@@H](C2CC2)C(=O)N(C)CC(=O)N(C)CC(=O)N(C)[C@@H](CC2CCCCC2)C(=O)N(C)CC(=O)N[C@@H](CCc2ccc(C(F)(F)F)c(Cl)c2)C(=O)N2CCC[C@H]2C(=O)NC2(CCCC2)C(=O)N(C)[C@@H](C(C)C)C(=O)N(C)[C@H](C(=O)N2CCCCC2)CC(=O)N1C [Compound 533] ([NMeL][Gly(cPr)][Sar][Sar][NMeCha][Sar][hPhe(3-Cl-4-CF3)]P[Ac5c][NMeV][NMeD]-Piperidide; lactam N-11) | 8.5
9 | CC[C@H](C)[C@@H]1NC(=O)[C@H](C)N(C)C(=O)C[C@@H](C(=O)N2CCCC2)NC(=O)[C@H](CC(C)C)N(C)C(=O)[C@H](CC2CCCCC2)N(C)C(=O)[C@H](CC(C)C)NC(=O)[C@H](CCc2ccc(C(F)(F)F)cc2)NC(=O)CN(C)C(=O)[C@H](Cc2ccc(Cl)cc2)N(C)C(=O)CN(C)C(=O)CN(C)C1=O [Compound 536] ([NMeA]I[Sar][Sar][NMePhe(4-Cl)][Sar][hPhe(4-CF3)]L[NMeCha][NMeL]D-Pyrrolidide; lactam N-11) | 230
